Experimental data published in ChEMBL document CHEMBL4425161, “1α,2α-Epoxy-3β-hydroxy oleanolic acid derivatives regulation of the metabolism, haemolysis and β-lactamase gene expression in vitro and their structure-microbicidal activity relationship” (2016).
Converted amounts (≈) assume the structure as drawn. The source made the active and inactive calls. No cut-off for these calls is given here.

What was measured:
Acinetobacter baumannii [1] = assay: Upregulation of SHV gene expression in Acinetobacter baumannii ATCC BAA-1710D at 50 umol/L after 8 hrs by semi-quantitative RT-PCR; type: functional, organism-based
Acinetobacter baumannii [2] = assay: Downregulation of PER gene expression in Acinetobacter baumannii ATCC BAA-1710D at 50 umol/L after 8 hrs by real time RT-PCR; type: functional, organism-based
Acinetobacter baumannii [3] = assay: Antibacterial activity against Acinetobacter baumannii ATCC BAA-1710D assessed as bacterial growth inhibition after 8 hrs by turbidimetric plate reader method; type: functional
Acinetobacter baumannii [4] = assay: Upregulation of CARB gene expression in Acinetobacter baumannii ATCC BAA-1710D at 50 umol/L after 8 hrs by real time RT-PCR; type: functional, organism-based
Acinetobacter baumannii [5] = assay: Upregulation of TEM gene expression in Acinetobacter baumannii ATCC BAA-1710D at 50 umol/L after 8 hrs by semi-quantitative RT-PCR; type: functional, organism-based
Acinetobacter baumannii [6] = assay: Antibacterial activity against Acinetobacter baumannii ATCC BAA-1710D assessed as bacterial growth inhibition at 50 umol/L after 8 hrs by turbidimetric plate reader method; type: functional, organism-based
Escherichia coli [7] = assay: Antibacterial activity against Escherichia coli ATCC 25922 assessed as bacterial growth inhibition after 8 hrs by turbidimetric plate reader method; type: functional
Klebsiella pneumoniae [8] = assay: Antibacterial activity against Klebsiella pneumoniae ATCC BAA-1705 assessed as bacterial growth inhibition after 8 hrs by turbidimetric plate reader method; type: functional
Acinetobacter baumannii [9] = assay: Upregulation of SHV gene expression in Acinetobacter baumannii ATCC BAA-1710D at 50 umol/L after 8 hrs by real time RT-PCR; type: functional, organism-based
Acinetobacter baumannii [10] = assay: Upregulation of CARB gene expression in Acinetobacter baumannii ATCC BAA-1710D at 50 umol/L after 8 hrs by semi-quantitative RT-PCR; type: functional, organism-based
Acinetobacter baumannii [11] = assay: Downregulation of GES gene expression in Acinetobacter baumannii ATCC BAA-1710D at 50 umol/L after 8 hrs by real time RT-PCR; type: functional, organism-based
Acinetobacter baumannii [12] = assay: Upregulation of VEB gene expression in Acinetobacter baumannii ATCC BAA-1710D at 50 umol/L after 8 hrs by real time RT-PCR; type: functional, organism-based
Acinetobacter baumannii [13] = assay: Upregulation of VEB gene expression in Acinetobacter baumannii ATCC BAA-1710D at 50 umol/L after 8 hrs by semi-quantitative RT-PCR; type: functional, organism-based
Acinetobacter baumannii [14] = assay: Upregulation of TEM gene expression in Acinetobacter baumannii ATCC BAA-1710D at 50 umol/L after 8 hrs by real time RT-PCR; type: functional, organism-based
Acinetobacter baumannii [15] = assay: Downregulation of GES gene expression in Acinetobacter baumannii ATCC BAA-1710D at 50 umol/L after 8 hrs by semi-quantitative RT-PCR; type: functional, organism-based
Bacillus subtilis [16] = assay: Antibacterial activity against Bacillus subtilis ATCC 6051 assessed as bacterial growth inhibition after 8 hrs by turbidimetric plate reader method; type: functional
Acinetobacter baumannii [17] = assay: Downregulation of PER gene expression in Acinetobacter baumannii ATCC BAA-1710D at 50 umol/L after 8 hrs by semi-quantitative RT-PCR; type: functional, organism-based
Klebsiella pneumoniae [18] = assay: Antibacterial activity against Klebsiella pneumoniae ATCC BAA-1705 assessed as bacterial growth inhibition at 50 umol/L after 8 hrs by turbidimetric plate reader method; type: functional, organism-based
Escherichia coli [19] = assay: Antibacterial activity against Escherichia coli ATCC 25922 assessed as bacterial growth inhibition at 50 umol/L after 8 hrs by turbidimetric plate reader method; type: functional, organism-based
Bacillus subtilis [20] = assay: Antibacterial activity against Bacillus subtilis ATCC 6051 assessed as bacterial growth inhibition at 50 umol/L after 8 hrs by turbidimetric plate reader method; type: functional, organism-based
Klebsiella pneumoniae [21] = assay: Downregulation of ldhD gene expression in Klebsiella pneumoniae ATCC BAA-1705 at 50 umol/L after 8 hrs by semi-quantitative RT-PCR; type: functional, organism-based
Klebsiella pneumoniae [22] = assay: Upregulation of IMP gene expression in Klebsiella pneumoniae ATCC BAA-1705 at 50 umol/L after 8 hrs by real time RT-PCR; type: functional, organism-based
Klebsiella pneumoniae [23] = assay: Upregulation of VEB gene expression in Klebsiella pneumoniae ATCC BAA-1705 at 50 umol/L after 8 hrs by semi-quantitative RT-PCR; type: functional, organism-based
Klebsiella pneumoniae [24] = assay: Upregulation of GES gene expression in Klebsiella pneumoniae ATCC BAA-1705 at 50 umol/L after 8 hrs by semi-quantitative RT-PCR; type: functional, organism-based
Klebsiella pneumoniae [25] = assay: Upregulation of VEB gene expression in Klebsiella pneumoniae ATCC BAA-1705 at 50 umol/L after 8 hrs by real time RT-PCR; type: functional, organism-based
Klebsiella pneumoniae [26] = assay: Upregulation of PER-2 gene expression in Klebsiella pneumoniae ATCC BAA-1705 at 50 umol/L after 8 hrs by real time RT-PCR; type: functional, organism-based
Klebsiella pneumoniae [27] = assay: Downregulation of ldhD gene expression in Klebsiella pneumoniae ATCC BAA-1705 at 50 umol/L after 8 hrs by real time RT-PCR; type: functional, organism-based
Klebsiella pneumoniae [28] = assay: Upregulation of GES gene expression in Klebsiella pneumoniae ATCC BAA-1705 at 50 umol/L after 8 hrs by real time RT-PCR; type: functional, organism-based
Klebsiella pneumoniae [29] = assay: Upregulation of IMP gene expression in Klebsiella pneumoniae ATCC BAA-1705 at 50 umol/L after 8 hrs by semi-quantitative RT-PCR; type: functional, organism-based
Klebsiella pneumoniae [30] = assay: Upregulation of PER-2 gene expression in Klebsiella pneumoniae ATCC BAA-1705 at 50 umol/L after 8 hrs by semi-quantitative RT-PCR; type: functional, organism-based

What does the source list for `CC(=O)O[C@H]1[C@@H]2O[C@@H]2[C@]2(C)[C@H]3CC=C4[C@@H]5CC(C)(C)CC[C@]5(C(=O)O)CC[C@@]4(C)[C@]3(C)CC[C@H]2C1(C)C`?
Activity (Acinetobacter baumannii [1]): Active; Activity (Acinetobacter baumannii [2]): Active; MBC (Acinetobacter baumannii [3]): 2.8 µM (≈ 1.44 µg/mL); growth inhibition (GI) (Acinetobacter baumannii [3]): Dose-dependent effect; Activity (Acinetobacter baumannii [4]): Active; Activity (Acinetobacter baumannii [5]): Active; growth inhibition (GI) (Acinetobacter baumannii [6]): Active; growth inhibition (GI) (Escherichia coli [7]): Dose-dependent effect; growth inhibition (GI) (Klebsiella pneumoniae [8]): Dose-dependent effect; Activity (Acinetobacter baumannii [9]): Active; Activity (Acinetobacter baumannii [10]): Active; Activity (Acinetobacter baumannii [11]): Active; Activity (Acinetobacter baumannii [12]): Active; Activity (Acinetobacter baumannii [13]): Active; Activity (Acinetobacter baumannii [14]): Active; Activity (Acinetobacter baumannii [15]): Active; growth inhibition (GI) (Bacillus subtilis [16]): Dose-dependent effect; Activity (Acinetobacter baumannii [17]): Active

How did the “growth inhibition (GI)” value (Klebsiella pneumoniae [18]) turn out when `CO[C@H]1[C@@H]2O[C@@H]2[C@]2(C)[C@H]3CC=C4[C@@H]5CC(C)(C)CC[C@]5(C(=O)O)CC[C@@]4(C)[C@]3(C)CC[C@H]2C1(C)C` was run?
The value was “inactive”.

What about the “growth inhibition (GI)” value (Acinetobacter baumannii [6]) of the same compound?
Its value is “inactive”.

And the “growth inhibition (GI)” value (Escherichia coli [19])?
The value was “inactive”.

What about the “growth inhibition (GI)” value (Bacillus subtilis [20]) of the same compound?
Its value is “inactive”.

`CC1(C)S[C@@H]2[C@H](NC(=O)[C@H](N)c3ccccc3)C(=O)N2[C@H]1C(=O)O` [AMPICILLIN] was tested. Which MBC (Escherichia coli [7]; ATCC 25922, 8 h) did it give?
Its MBC is 1.8 µM (≈ 0.629 µg/mL).

`CCCOC(=O)[C@]12CCC(C)(C)C[C@H]1C1=CC[C@@H]3[C@@]4(C)[C@H]5O[C@H]5[C@H](O)C(C)(C)[C@@H]4CC[C@@]3(C)[C@]1(C)CC2` was tested. Which “growth inhibition (GI)” value (Acinetobacter baumannii [3]) did it give?
The value was “Dose-dependent effect”.

And the “growth inhibition (GI)” value (Klebsiella pneumoniae [18])?
The value was “Active”.

What about the Activity (Klebsiella pneumoniae [21]) of the same compound?
Its Activity is “Active”.

And the Activity (Klebsiella pneumoniae [22])?
The Activity was “Active”.

And the Activity (Klebsiella pneumoniae [23])?
The Activity was “Active”.

What about the Activity (Klebsiella pneumoniae [24]) of the same compound?
Its Activity is “inactive”.

What about the “growth inhibition (GI)” value (Escherichia coli [7]) of the same compound?
Its value is “Dose-dependent effect”.

What about the “growth inhibition (GI)” value (Klebsiella pneumoniae [8]) of the same compound?
The value was “Dose-dependent effect”.

And the MBC (Klebsiella pneumoniae [8]; ATCC BAA-1705, 8 h)?
The MBC was 1.5 µM (≈ 0.769 µg/mL).

What about the Activity (Klebsiella pneumoniae [25]) of the same compound?
The Activity was “Active”.

And the Activity (Klebsiella pneumoniae [26])?
The Activity was “Active”.

What about the Activity (Klebsiella pneumoniae [27]) of the same compound?
The Activity was “Active”.

What about the Activity (Klebsiella pneumoniae [28]) of the same compound?
The Activity was “inactive”.

What about the Activity (Klebsiella pneumoniae [29]) of the same compound?
Its Activity is “Active”.

What about the Activity (Klebsiella pneumoniae [30]) of the same compound?
The Activity was “Active”.

What about the “growth inhibition (GI)” value (Bacillus subtilis [16]) of the same compound?
Its value is “Dose-dependent effect”.
